{"source": "paper PMC10582335", "about": "(Frontiers in Pharmacology, 2023)", "key": {"[1]": {"settings": "cited from earlier work; for terminal half-life: 2008"}, "[2]": {"experiment": "Pharmacokinetics of rivaroxaban in rats, alone and after multiple doses of almonertinib", "format": "in vivo, Sprague-Dawley (SD) rats", "settings": "for AUC(0-inf) / Cmax / Tmax / CL/F / MRT last / MRT inf / Vd/F: po; for CL/F: read-out: CLz/F (converted); for MRT last: read-out: MRT0-t; for MRT inf: read-out: MRT0-∞; for Vd/F: read-out: Vz/F; for half-life: read-out: t1/2z (converted)", "experimental": "Analytes were measured using UPLC-MS/MS, which was equipped with an LC-30A ultra-performance liquid chromatography (Shimadzu, Kyoto, Japan) and Sciex Triple Quad 5,500 tandem triple quadrupole mass spectrometer (AB Sciex, Framingham, MA, United States). Chromatographic separation was performed using an XSelect HSS T3 column (2.1 mm × 100 mm, 2.5 µm, Waters, Milford, MA, United States) at 40°C by gradient elution. The mobile phase consisted of water (A) and acetonitrile (0.1% formic acid, B). The elution procedure was as follows: 0–1.0 min, 50% B; 1.0–1.5 min, 50%→98% B; 1.5–3.0 min, 98% B; 3.0–3.1 min, 98%→50% B; 3.1–4.1 min, 50% B. The flow rate was 0.35 mL min^−1, and the injection volume was 6 µL.\nThe positive ion mode with multiple reaction detection was used. […] The mass spectrometer conditions, including delustering potential (DP) and collision energy (CE) of the compounds, are shown in Table 1. Other parameters of the mass spectrometer were as follows: ion source gas 1, 60.0 psi; ion source gas 2, 50.0 psi; curtain gas, 25.0 psi; source temperature, 500°C; ion spray voltage, 5,500 V.\nProtein precipitation was used to process the plasma samples. 5 μL of mixed IS working solution, 50 µL of the plasma samples, and 150 µL of acetonitrile were vortex-mixed for 1.0 min. Then, the mixture was centrifuged at 13,000 × g for 10 min; 100 µL of 50% acetonitrile-water was added to 100 µL of supernatant, vortex-mixed, and centrifuged again. The supernatant was transferred to a 96-well plate for sample analysis.\nHealthy male Sprague-Dawley (SD) rats weighing 250 ± 20 g were purchased from Beijing Huafukang Biotechnology Co., Ltd. (Beijing, China). The license number is SCXK (Beijing) 2019–0008. The study was approved and supervised by the Animal Ethics Committee of Hebei General Hospital (Shijiazhuang, China) (No. 2023024). Adaptive feeding (sufficient food and water) was performed for 1 week before the experiment. All the rats were kept under suitable conditions (12 h dark-light diurnal cycle, appropriate temperature at 23°C–25°C, relative humidity of 50% ± 10%). All rats were fasted for 12 h before starting the experiments while still given water.\nSixty healthy rats were randomly divided into ten groups (n = 6). […] Blood samples were centrifuged at 3,500 g for 10 min, and then the supernatant was gathered and stored in a −80°C refrigerator. After, rat intestine, kidney and liver tissues were harvested for molecular analysis on the ninth or fifth day after treatment with the corresponding drugs for each group. The tissues were placed immediately at −80°C.\nDAS 2.1.1 Software (Mathematical Pharmacology Professional Committee of China, Shanghai, China) was applied to calculate pharmacokinetic parameters using non-compartmental analysis. SPSS 25.0 statistical software (SPSS Inc., Chicago, IL, United States) was applied to statistically analyze the main pharmacokinetic parameters, including AUC, Cmax, Tmax, t1/2, CLz/F, Vz/F, and MRT. Statistical comparisons were conducted using a analysis of variance, t-test or nonparametric rank-sum test depending on the data type; p-value <0.05 was deemed statistically significant."}, "[3]": {"experiment": "Stability in rat plasma under storage and processing conditions (QC samples, UPLC-MS/MS)", "settings": "n = 6", "protocol": "The stability of plasma samples was validated by the QC samples at three concentration levels in six replicates under various storage and processing conditions: autosampler for 24 h after preprocessing, room temperature for 8 h, −80°C for 30 days, and three freeze-thaw cycles (−80°C to room temperature). The samples were verified to be stable if the deviation of the samples was not more than ±15% of the standard concentration."}, "[4]": {"settings": "male, Sprague-Dawley, rat, plasma, 1 mg/kg, rats, oral rivaroxaban 1 mg/kg after almonertinib 15 mg/kg for nine days (group 6), mean ± SD, n = 6"}, "[5]": {"settings": "male, Sprague-Dawley, rat, plasma, 2 mg/kg, rats, oral rivaroxaban 2 mg/kg after almonertinib 15 mg/kg for nine days (group 5), mean ± SD, n = 6"}, "[6]": {"settings": "male, Sprague-Dawley, rat, plasma, 2 mg/kg, rats, oral rivaroxaban 2 mg/kg alone (group 1), mean ± SD, n = 6"}, "[7]": {"settings": "rats, oral rivaroxaban 2 mg/kg after almonertinib 15 mg/kg for nine days (group 5), mean ± SD, n = 6"}, "[8]": {"settings": "rivaroxaban 1 mg/kg with multiple doses of almonertinib (group 6) compared to group 1, rats"}, "[9]": {"settings": "rivaroxaban 2 mg/kg with multiple doses of almonertinib (group 5) compared to group 1, rats"}, "[10]": {"settings": "Freeze-thaw stability for three times, high QC (nominal 150 almonertinib, 800 apixaban, 1,500 rivaroxaban ng/mL)"}, "[11]": {"settings": "Freeze-thaw stability for three times, low QC (nominal 1 almonertinib, 2 apixaban, 10 rivaroxaban ng/mL)"}, "[12]": {"settings": "Freeze-thaw stability for three times, medium QC (nominal 80 almonertinib, 400 apixaban, 800 rivaroxaban ng/mL)"}, "[13]": {"settings": "Room temperature for 8 h, high QC (nominal 150 almonertinib, 800 apixaban, 1,500 rivaroxaban ng/mL)"}, "[14]": {"settings": "Room temperature for 8 h, low QC (nominal 1 almonertinib, 2 apixaban, 10 rivaroxaban ng/mL)"}, "[15]": {"settings": "Room temperature for 8 h, medium QC (nominal 80 almonertinib, 400 apixaban, 800 rivaroxaban ng/mL)"}, "[16]": {"settings": "−80°C for 30 days, high QC (nominal 150 almonertinib, 800 apixaban, 1,500 rivaroxaban ng/mL)"}, "[17]": {"settings": "−80°C for 30 days, low QC (nominal 1 almonertinib, 2 apixaban, 10 rivaroxaban ng/mL)"}, "[18]": {"settings": "−80°C for 30 days, medium QC (nominal 80 almonertinib, 400 apixaban, 800 rivaroxaban ng/mL)"}}, "note": "Read-outs that look alike come from different tables or passages of the source.", "data": [{"smiles": "O=C(NC[C@H]1CN(c2ccc(N3CCOCC3=O)cc2)C(=O)O1)c1ccc(Cl)s1", "note": "[rivaroxaban, Rivaroxaban]", "values": [{"measurement": "time of the maximal blood concentration after oral intake", "setting": "[1]; (±1 h), each of two drugs, ref Steffel et al., 2021", "result": "2 to 3", "unit": "h"}, {"measurement": "time to reach maximum plasma concentrations", "setting": "[1]; after oral administration, ref Kubitza et al., 2005a, Kubitza et al., 2005b, Raghavan et al., 2009", "result": "2 to 4", "unit": "h"}, {"measurement": "terminal half-life", "setting": "[1]; elderly subjects, ref Kubitza et al., 2005a, Kubitza et al.", "result": "11 to 13", "unit": "h"}, {"measurement": "terminal half-life", "setting": "[1]; healthy young subjects, ref Kubitza et al., 2005a, Kubitza et al.", "result": "5 to 9", "unit": "h"}, {"measurement": "increase of AUC of rivaroxaban", "setting": "[2]; after a half dose reduction of rivaroxaban, multiple doses of almonertinib, rats (discussion)", "result": "~1.9", "unit": "fold"}, {"measurement": "increase of AUC of rivaroxaban", "setting": "[2]; co-administration with almonertinib for multiple doses, rats (discussion, AUC not specified further)", "result": "more than 3.0 fold"}, {"measurement": "AUC(0-inf)", "setting": "[2]; [4]", "result": 2230, "unit": "ng·h/mL"}, {"measurement": "Cmax", "setting": "[2]; [4]", "result": "457 ± 101", "unit": "ng/mL"}, {"measurement": "Tmax", "setting": "[2]; [4]", "result": "2.08 ± 0.49", "unit": "h"}, {"measurement": "CL/F", "setting": "[2]; [4]", "result": 7.83, "unit": "mL/min/kg"}, {"measurement": "MRT last", "setting": "[2]; [4]", "result": "4.1 ± 0.41", "unit": "h"}, {"measurement": "MRT inf", "setting": "[2]; [4]", "result": "4.3 ± 0.47", "unit": "h"}, {"measurement": "Vd/F", "setting": "[2]; [4]", "result": "2.83 ± 0.55", "unit": "L/kg"}, {"measurement": "AUC(0-inf)", "setting": "[2]; [5]", "result": 3540, "unit": "ng·h/mL"}, {"measurement": "Cmax", "setting": "[2]; [5]", "result": "862 ± 110", "unit": "ng/mL"}, {"measurement": "Tmax", "setting": "[2]; [5]", "result": "2.21 ± 0.95", "unit": "h"}, {"measurement": "CL/F", "setting": "[2]; [5]", "result": 10, "unit": "mL/min/kg"}, {"measurement": "MRT last", "setting": "[2]; [5]", "result": "3.94 ± 0.56", "unit": "h"}, {"measurement": "MRT inf", "setting": "[2]; [5]", "result": "4.12 ± 0.6", "unit": "h"}, {"measurement": "Vd/F", "setting": "[2]; [5]", "result": "3.75 ± 0.72", "unit": "L/kg"}, {"measurement": "AUC(0-inf)", "setting": "[2]; [6]", "result": "797 ± 169", "unit": "ng·h/mL"}, {"measurement": "Cmax", "setting": "[2]; [6]", "result": "200 ± 38", "unit": "ng/mL"}, {"measurement": "Tmax", "setting": "[2]; [6]", "result": "0.92 ± 0.3", "unit": "h"}, {"measurement": "CL/F", "setting": "[2]; [6]", "result": 43.7, "unit": "mL/min/kg"}, {"measurement": "MRT last", "setting": "[2]; [6]", "result": "4.72 ± 0.57", "unit": "h"}, {"measurement": "MRT inf", "setting": "[2]; [6]", "result": "6.09 ± 1.45", "unit": "h"}, {"measurement": "Vd/F", "setting": "[2]; [6]", "result": "26.4 ± 18", "unit": "L/kg"}, {"measurement": "AUC(0-t)", "setting": "[2]; male, Sprague-Dawley, rat, plasma, rats, oral rivaroxaban 1 mg/kg after almonertinib 15 mg/kg for nine days (group 6), mean ± SD, n = 6, read-out: AUC0-t", "result": 2220, "unit": "ng·h/mL"}, {"measurement": "half-life", "setting": "[2]; male, Sprague-Dawley, rat, plasma, rats, oral rivaroxaban 1 mg/kg after almonertinib 15 mg/kg for nine days (group 6), mean ± SD, n = 6", "result": "4.3 ± 0.91", "unit": "h"}, {"measurement": "AUC(0-t)", "setting": "[2]; male, Sprague-Dawley, rat, plasma, rats, oral rivaroxaban 2 mg/kg alone (group 1), mean ± SD, n = 6, read-out: AUC0-t", "result": "764 ± 164", "unit": "ng·h/mL"}, {"measurement": "half-life", "setting": "[2]; male, Sprague-Dawley, rat, plasma, rats, oral rivaroxaban 2 mg/kg alone (group 1), mean ± SD, n = 6", "result": "6.84 ± 3.46", "unit": "h"}, {"measurement": "AUC(0-t)", "setting": "[2]; [7]", "result": "3,511.15 ± 783.84 μg/L*h"}, {"measurement": "t1/2z", "setting": "[2]; [7]", "result": "4.47 ± 0.80", "unit": "h"}, {"measurement": "Tmax of rivaroxaban longer than control", "setting": "[2]; [8]", "result": 1.26, "unit": "fold"}, {"measurement": "decrease of CLz/F of rivaroxaban", "setting": "[2]; [8]", "result": 4.57, "unit": "fold"}, {"measurement": "increase of AUC0-t of rivaroxaban", "setting": "[2]; [8]", "result": 1.90, "unit": "fold"}, {"measurement": "Tmax of rivaroxaban longer than control", "setting": "[2]; [9]", "result": 1.40, "unit": "fold"}, {"measurement": "decrease of CLz/F of rivaroxaban", "setting": "[2]; [9]", "result": 3.37, "unit": "fold"}, {"measurement": "increase of AUC0-t of rivaroxaban", "setting": "[2]; [9]", "result": 3.60, "unit": "fold"}, {"measurement": "increase of AUC0-∞ of rivaroxaban", "setting": "[2]; [9]", "result": 3.44, "unit": "fold"}, {"measurement": "Stability: Accuracy (RE%)", "setting": "[3]; [10]", "result": "−5.56", "unit": "%"}, {"measurement": "Stability: measured concentration, Mean ± SD", "setting": "[3]; [10]", "result": "1,416.67 ± 48.85 ng/mL"}, {"measurement": "Stability: Accuracy (RE%)", "setting": "[3]; [11]", "result": 1.13, "unit": "%"}, {"measurement": "Stability: measured concentration, Mean ± SD", "setting": "[3]; [11]", "result": "10.11 ± 0.61", "unit": "ng/mL"}, {"measurement": "Stability: Accuracy (RE%)", "setting": "[3]; [12]", "result": "−3.21", "unit": "%"}, {"measurement": "Stability: measured concentration, Mean ± SD", "setting": "[3]; [12]", "result": "774.33 ± 23.28", "unit": "ng/mL"}, {"measurement": "Stability: Accuracy (RE%)", "setting": "[3]; [13]", "result": "−1.11", "unit": "%"}, {"measurement": "Stability: measured concentration, Mean ± SD", "setting": "[3]; [13]", "result": "1,483.33 ± 72.30 ng/mL"}, {"measurement": "Stability: Accuracy (RE%)", "setting": "[3]; [14]", "result": 7.75, "unit": "%"}, {"measurement": "Stability: measured concentration, Mean ± SD", "setting": "[3]; [14]", "result": "10.78 ± 0.59", "unit": "ng/mL"}, {"measurement": "Stability: Accuracy (RE%)", "setting": "[3]; [15]", "result": 4.19, "unit": "%"}, {"measurement": "Stability: measured concentration, Mean ± SD", "setting": "[3]; [15]", "result": "833.50 ± 49.92", "unit": "ng/mL"}, {"measurement": "Stability: Accuracy (RE%)", "setting": "[3]; [16]", "result": "−4.33", "unit": "%"}, {"measurement": "Stability: measured concentration, Mean ± SD", "setting": "[3]; [16]", "result": "1,435.00 ± 96.07 ng/mL"}, {"measurement": "Stability: Accuracy (RE%)", "setting": "[3]; [17]", "result": 6.83, "unit": "%"}, {"measurement": "Stability: measured concentration, Mean ± SD", "setting": "[3]; [17]", "result": "10.68 ± 0.22", "unit": "ng/mL"}, {"measurement": "Stability: Accuracy (RE%)", "setting": "[3]; [18]", "result": "−4.38", "unit": "%"}, {"measurement": "Stability: measured concentration, Mean ± SD", "setting": "[3]; [18]", "result": "765.00 ± 58.14", "unit": "ng/mL"}]}]}
